Source: PubChem BioAssay AID248 (DTP/NCI, 2004)
Where “and” joins values, the source holds several entries; their conditions need not be identical. Equal entries are not always repeated. Inconclusive results and toxic doses are left out. Cut-off read from the data, not from the text of the source: active = T/C of 150% or more; inactive = T/C below 125%. Square brackets hold non-standard residues; d marks the D form. Peptide text beside a SMILES is read from it. * marks the point of attachment. Arg(NO2) = N=C(NCCC[CH](N)C(=O)O)N[N+](=O)[O-]; Cbz = O=C(OCc1ccccc1)*

Tested on: L1210 leukemia ip in BDF1 mice, survival T/C
Test: NCI In Vivo Anticancer Drug Screen. Data for tumor model L1210 Leukemia (intraperitoneal) in B6D2F1 (BDF1) mice
Conditions: endpoint: mean survival time, higher = longer survival
Procedure, shortened: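 Mice bearing the transplanted tumor received compound or vehicle. Survival of the treated group was divided by that of the vehicle-treated control group to give the ratio.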

[1] = dose: 50.0 mg/kg/injection, schedule: Q01DX009 (ip), vehicle: saline
[2] = dose: 100.0 mg/kg/injection, schedule: Q01DX009 (ip), vehicle: saline
[3] = dose: 100.0 mg/kg/injection, schedule: Q04DX003 (ip), vehicle: saline
[4] = dose: 200.0 mg/kg/injection, schedule: Q01DX009 (ip), vehicle: saline
[5] = dose: 200.0 mg/kg/injection, schedule: Q04DX003 (ip), vehicle: saline
[6] = dose: 12.5 mg/kg/injection, schedule: Q04DX002 (ip), vehicle: saline
[7] = dose: 25.0 mg/kg/injection, schedule: Q04DX002 (ip), vehicle: saline
[8] = dose: 50.0 mg/kg/injection, schedule: Q04DX002 (ip), vehicle: saline
[9] = dose: 100.0 mg/kg/injection, schedule: Q04DX003 (ip), vehicle: Klucel (hydroxypropylcellulose) (HPC)
[10] = dose: 200.0 mg/kg/injection, schedule: Q04DX003 (ip), vehicle: Klucel (hydroxypropylcellulose) (HPC)
[11] = dose: 100.0 mg/kg/injection, schedule: Q01DX001 (ip), vehicle: saline
[12] = dose: 200.0 mg/kg/injection, schedule: Q01DX001 (ip), vehicle: saline
[13] = dose: 400.0 mg/kg/injection, schedule: Q01DX001 (ip), vehicle: saline
[14] = dose: 400.0 mg/kg/injection, schedule: Q04DX003 (ip), vehicle: Klucel (hydroxypropylcellulose) (HPC)
[15] = dose: 100.0 mg/kg/injection, schedule: Q01DX009 (ip), vehicle: Klucel (hydroxypropylcellulose) (HPC)
[16] = dose: 200.0 mg/kg/injection, schedule: Q01DX009 (ip), vehicle: Klucel (hydroxypropylcellulose) (HPC)
[17] = dose: 400.0 mg/kg/injection, schedule: Q01DX009 (ip), vehicle: Klucel (hydroxypropylcellulose) (HPC)
[18] = dose: 400.0 mg/kg/injection, schedule: Q04DX003 (ip), vehicle: saline
[19] = dose: 100.0 mg/kg/injection, schedule: Q01DX001 (ip), vehicle: carboxymethylcellulose (CMC)
[20] = dose: 200.0 mg/kg/injection, schedule: Q01DX001 (ip), vehicle: carboxymethylcellulose (CMC)
[21] = dose: 400.0 mg/kg/injection, schedule: Q01DX001 (ip), vehicle: carboxymethylcellulose (CMC)

Measured: T/C

O=C(O)c1c(Cl)c([N+](=O)[O-])cc([N+](=O)[O-])c1Cl
inactive: [1] 92 % of control | [2] 92 % of control | [3] 103 % of control | [4] 92 % of control | [5] 99 % of control

O=C(CCl)NCCCC1CCCCC1
inactive: [6] 100 % of control | [7] 96 % of control | [8] 104 % of control

CC(=O)Nc1ccc(S(=O)(=O)N2CC2)cc1
inactive: dose: 50.0 mg/kg/injection, schedule: Q01DX005 (ip), vehicle: saline 102 % of control | dose: 50.0 mg/kg/injection, schedule: Q04DX003 (ip), vehicle: Klucel (hydroxypropylcellulose) (HPC) 91 % of control | dose: 100.0 mg/kg/injection, schedule: Q01DX005 (ip), vehicle: saline 96 % of control | [9] 102 % of control | dose: 200.0 mg/kg/injection, schedule: Q01DX005 (ip), vehicle: saline 102 % of control | [10] 95 % of control

Cc1cccc(Nc2nc(N)nc(N)c2N=O)c1C
inactive: dose: 100.0 mg/kg/injection, schedule: Q01DX Z (ip), vehicle: methylcellulose (MC) 96 % of control | dose: 200.0 mg/kg/injection, schedule: Q01DX Z (ip), vehicle: methylcellulose (MC) 102 % of control

NC(=O)NC1C(c2ccccc2)C1c1ccccc1 (centres undefined)
inactive: [11] 121 % of control | [12] 110 % of control | [13] 93 % of control

COC(=O)C(=[N+]=[N-])C(F)(F)F
inactive: [1] 95 % of control | [2] 102 % of control | [4] 102 % of control

OCCCCOc1ccccc1
inactive: [11] 105 % of control | [12] 100 % of control | [13] 96 % of control

COC(=O)C(CCCN=C(N)N[N+](=O)[O-])NC(=O)C(Cc1ccccc1)NC(=O)C1CCCN1C(=O)OCc1ccccc1 (stereo not drawn) (Cbz-Pro-Phe-[Arg(NO2)]-OMe; configuration not given here)
inactive: [11] 90 % of control | [12] 96 % of control | [13] 92 % of control

O=C(NCCCCCCNC(=O)Nc1ccc(C2=NCCN2)cc1)Nc1ccc(C2=NCCN2)cc1
inactive: dose: 62.0 mg/kg/injection, schedule: Q01DX Z (ip), vehicle: carboxymethylcellulose (CMC) 106 % of control | dose: 125.0 mg/kg/injection, schedule: Q01DX Z (ip), vehicle: carboxymethylcellulose (CMC) 92 % of control | dose: 250.0 mg/kg/injection, schedule: Q01DX Z (ip), vehicle: carboxymethylcellulose (CMC) 109 % of control | dose: 500.0 mg/kg/injection, schedule: Q01DX Z (ip), vehicle: carboxymethylcellulose (CMC) 102 % of control

CC(C)(C)Nc1ccc(C#N)cc1
inactive: dose: 12.5 mg/kg/injection, schedule: Q04DX002 (ip), vehicle: Klucel (hydroxypropylcellulose) (HPC) 97 % of control | dose: 25.0 mg/kg/injection, schedule: Q04DX002 (ip), vehicle: Klucel (hydroxypropylcellulose) (HPC) 94 % of control | dose: 50.0 mg/kg/injection, schedule: Q04DX002 (ip), vehicle: Klucel (hydroxypropylcellulose) (HPC) 87 % of control

c1ccc(NC2=NCCO2)cc1
inactive: dose: 25.0 mg/kg/injection, schedule: Q04DX002 (ip), vehicle: saline with Tween-80 107 % of control | dose: 50.0 mg/kg/injection, schedule: Q04DX002 (ip), vehicle: saline with Tween-80 90 % of control | dose: 100.0 mg/kg/injection, schedule: Q04DX002 (ip), vehicle: saline with Tween-80 96 % of control

NC/C=N/N=C(N)N
inactive: dose: 15.0 mg/kg/injection, schedule: Q01DX Z (ip), vehicle: saline 97 % of control | dose: 30.0 mg/kg/injection, schedule: Q01DX Z (ip), vehicle: saline 96 % of control | dose: 60.0 mg/kg/injection, schedule: Q01DX Z (ip), vehicle: saline 94 % of control | dose: 120.0 mg/kg/injection, schedule: Q01DX Z (ip), vehicle: saline 87 % of control | dose: 120.0 mg/kg/injection, schedule: Q01DX Z (oral), vehicle: saline 101 % of control | dose: 240.0 mg/kg/injection, schedule: Q01DX Z (oral), vehicle: saline 101 % of control | dose: 480.0 mg/kg/injection, schedule: Q01DX Z (oral), vehicle: saline 103 % of control | dose: 960.0 mg/kg/injection, schedule: Q01DX Z (oral), vehicle: saline 98 % of control

Cn1cc([N+](=O)[O-])ccc1=O
inactive: [9] 110 % of control | [10] 116 % of control | [14] 121 % of control

CCCCC[C@H](CN(C)C)[C@H](O)/C=C/c1ccc(Cl)cc1
inactive: [6] 113 % of control | [7] 110 % of control | [8] 102 % of control

CCOc1ccc(/C=C/C(=O)c2ccc(C)cc2)cc1OCC
inactive: dose: 75.0 mg/kg/injection, schedule: Q04DX003 (ip), vehicle: saline 100 % of control | dose: 150.0 mg/kg/injection, schedule: Q04DX003 (ip), vehicle: saline 102 % of control | dose: 300.0 mg/kg/injection, schedule: Q04DX003 (ip), vehicle: saline 105 % of control

CC1CN(C(=O)Nc2ccc(Cl)cc2)CC(C)O1 (centres undefined)
inactive: [15] 100 % of control | [9] 100 % of control | [16] 101 % of control | [10] 89 % of control | [17] 113 % of control | [14] 97 % of control

Cc1cccc(Cl)c1NC(=O)Nc1c(C)n(C)n(-c2ccccc2)c1=O
inactive: [15] 100 % of control | [16] 102 % of control | [17] 100 % of control

CCOC(=O)Nc1cc2c(c(=O)[nH]1)N=C(CN(C)c1ccc(C(=O)OC)cc1)CN2
inactive: dose: 100.0 mg/kg/injection, schedule: Q01DX001 (ip), vehicle: alkali diluted with saline 104 % of control | dose: 200.0 mg/kg/injection, schedule: Q01DX001 (ip), vehicle: alkali diluted with saline 96 % of control | dose: 400.0 mg/kg/injection, schedule: Q01DX001 (ip), vehicle: alkali diluted with saline 102 % of control

CC(=O)Nc1ccc(NC(=O)NC(C)(C)C)cc1
inactive: [15] 97 % of control | [16] 96 % of control | [17] 96 % of control

CN1C(=O)CC[n+]2ccccc21
inactive: [3] 101 % of control | [5] 104 % of control | [18] 86 % of control

COc1ccc(Oc2ccccc2)cc1-c1ccccc1
inactive: [19] 93 % of control | [20] 102 % of control | [21] 96 % of control

OCC1OCOC(CI)C(O)C1O (centres undefined)
inactive: [19] 97 % of control | [20] 101 % of control | [21] 97 % of control

COc1ccc2ncc(CO)cc2c1
inactive: [3] 96 % of control | [5] 98 % of control | [18] 112 % of control

O=S1(=O)CC(c2ccccc2)=NN=C(c2ccccc2)C1
inactive: [11] 92 % of control | [12] 86 % of control | [13] 92 % of control

COC1CCCC(/C(=C\Br)c2ccccc2)C1 (centres undefined)
inactive: [11] 106 % of control | [12] 106 % of control | [13] 115 % of control

Cc1ccc([P+](=O)O)cc1Cl
inactive: [11] 100 % of control | [12] 93 % of control | [13] 88 % of control

Nc1cc(Cl)ccc1S(N)(=O)=O
inactive: [2] 92 % of control | dose: 100.0 mg/kg/injection, schedule: Q04DX003 (ip), vehicle: saline with Tween-80 105 % of control | [4] 100 % of control | dose: 200.0 mg/kg/injection, schedule: Q04DX003 (ip), vehicle: saline with Tween-80 105 % of control | dose: 400.0 mg/kg/injection, schedule: Q01DX009 (ip), vehicle: saline 111 % of control | dose: 400.0 mg/kg/injection, schedule: Q04DX003 (ip), vehicle: saline with Tween-80 108 % of control

C=CCCC1(CC=C)C(=O)NC(=O)NC1=O
inactive: dose: 75.0 mg/kg/injection, schedule: Q01DX001 (ip), vehicle: saline 100 % of control | dose: 150.0 mg/kg/injection, schedule: Q01DX001 (ip), vehicle: saline 104 % of control

c1ccc(-c2ncc3cnccn23)cc1
inactive: dose: 25.0 mg/kg/injection, schedule: Q04DX003 (ip), vehicle: saline 100 % of control | dose: 50.0 mg/kg/injection, schedule: Q04DX003 (ip), vehicle: saline 102 % of control | [3] 98 % of control and 102 % of control

O=[N+]([O-])c1ncn(C2OC(CO)C(O)C2O)c1Br (centres undefined)
inactive: dose: 50.0 mg/kg/injection, schedule: Q01DX001 (ip), vehicle: saline 98 % of control | [11] 102 % of control | [12] 102 % of control | [13] 104 % of control

NC(=O)c1ccccc1NC(=O)Nc1ccc(Cl)cc1
inactive: [15] 98 % of control | [16] 96 % of control | [17] 91 % of control
